The source made the active and inactive calls. No cut-off for these calls is given here.
Assays:
Candida albicans [1] = test: Antibiofilm activity against fluconazole-resistant Candida albicans DAY185 assessed as inhibition of biofilm formation at 0.5 ug/ml measured after 24 hrs by crystal violet staining based analysis relative to control; type: functional, organism-based; details: dose 0.5 µg/ml
Candida albicans [2] = test: Antibiofilm activity against fluconazole-resistant Candida albicans DAY185 assessed as inhibition of biofilm formation at 1 ug/ml measured after 24 hrs by crystal violet staining based analysis relative to control; type: functional
Candida albicans [3] = test: Inhibition of yeast to hypha transition in fluconazole-resistant Candida albicans DAY185 assessed as decrease in germ tube formation at 5 to 20 ug/ml measured after 24 hrs by SEM analysis; type: functional, organism-based; details: dose 5-20 µg/ml
Candida albicans [4] = test: Upregulation of IFD6 mRNA level in fluconazole-resistant Candida albicans DAY185 assessed as fold increase at 50 ug/ml incubated for 6 hrs by qRT-PCR analysis relative to control; type: functional; details: dose 50.0 µg/ml
Candida albicans [5] = test: Antibiofilm activity against fluconazole-resistant Candida albicans DAY185 assessed as inhibition of biofilm formation at 5 ug/ml measured after 24 hrs by 2D/3D imaging analysis; type: functional, organism-based; details: dose 5.0 µg/ml
Candida albicans [6] = test: Antibiofilm activity against fluconazole-resistant Candida albicans DAY185 assessed as reduction in biofilm thickness on bio-compatible PLGA surface coated with compound at 5 to 10 ug/ml incubated for 24 hrs by CLSM analysis; type: functional, organism-based; details: dose 5-10 µg/ml
Candida albicans [7] = test: Additive antibiofilm activity against fluconazole-resistant Candida albicans DAY185 assessed as inhibition of biofilm formation at 5 ug/ml measured after 24 hrs in presence of BTZ by crystal violet staining based analysis relative to control; type: functional, organism-based; details: dose 5.0 µg/ml
[Candida] auris [8] = Antibiofilm activity against Candida auris KCTC 17810 assessed as inhibition of biofilm formation by crystal violet staining based analysis; type: functional, organism-based; details: Candidozyma auris
Candida albicans [9] = test: Upregulation of CDR11 mRNA level in fluconazole-resistant Candida albicans DAY185 assessed as fold increase at 50 ug/ml incubated for 6 hrs by qRT-PCR analysis relative to control; type: functional; details: dose 50.0 µg/ml
Candida albicans [10] = test: Antibiofilm activity against fluconazole-resistant Candida albicans DAY185 assessed as reduction in substratum coverage on bio-compatible PLGA surface coated with compound at 5 ug/ml incubated for 24 hrs by COMSTAT analysis; type: functional, organism-based; details: dose 5.0 µg/ml
[Candida] auris [11] = Antibiofilm activity against Candida auris KCTC 17809 assessed as inhibition of biofilm formation by crystal violet staining based analysis; type: functional, organism-based; details: Candidozyma auris
Candida albicans [12] = test: Upregulation of GST3 mRNA level in fluconazole-resistant Candida albicans DAY185 assessed as fold increase at 50 ug/ml incubated for 6 hrs by qRT-PCR analysis relative to control; type: functional; details: dose 50.0 µg/ml
Candida albicans [13] = test: Antibiofilm activity against fluconazole-resistant Candida albicans DAY185 assessed as inhibition of biofilm formation at 50 ug/ml measured after 24 hrs by crystal violet staining based analysis relative to control; type: functional
Candida albicans [14] = test: Antibiofilm activity against fluconazole-resistant Candida albicans DAY185 assessed as inhibition of biofilm formation at 5 ug/ml measured after 24 hrs by crystal violet staining based analysis; type: functional, organism-based; details: dose 5.0 µg/ml
Candida albicans [15] = test: Downregulation of ECE1 mRNA level in fluconazole-resistant Candida albicans DAY185 assessed as fold decrease at 50 ug/ml incubated for 6 hrs by qRT-PCR analysis relative to control; type: functional; details: dose 50.0 µg/ml
Candida albicans [16] = test: Antibiofilm activity against fluconazole-resistant Candida albicans DAY185 assessed as reduction in biofilm mass on bio-compatible PLGA surface coated with compound incubated for 24 hrs by COMSTAT analysis; type: functional, organism-based
Candida albicans [17] = test: Antibiofilm activity against fluconazole-resistant Candida albicans DAY185 assessed as inhibition of biofilm formation at 7 ug/ml measured after 24 hrs by crystal violet staining based analysis relative to control; type: functional
Candida albicans [18] = test: Upregulation of YWP1 mRNA level in fluconazole-resistant Candida albicans DAY185 assessed as fold increase at 50 ug/ml incubated for 6 hrs by qRT-PCR analysis relative to control; type: functional; details: dose 50.0 µg/ml
Candida albicans [19] = test: Downregulation of HWP1 mRNA level in fluconazole-resistant Candida albicans DAY185 assessed as fold decrease at 50 ug/ml incubated for 6 hrs by qRT-PCR analysis relative to control; type: functional; details: dose 50.0 µg/ml
Candida albicans [20] = test: Effect on UME6 mRNA level in fluconazole-resistant Candida albicans DAY185 at 50 ug/ml incubated for 6 hrs by qRT-PCR analysis; type: functional; details: dose 50.0 µg/ml
Candida albicans [21] = test: Upregulation of UCF1 mRNA level in fluconazole-resistant Candida albicans DAY185 assessed as fold increase at 50 ug/ml incubated for 6 hrs by qRT-PCR analysis relative to control; type: functional; details: dose 50.0 µg/ml
Candida albicans [22] = test: Inhibition of yeast to hypha transition in fluconazole-resistant Candida albicans DAY185 assessed as decrease in hyphal adhesion at 5 to 20 ug/ml measured after 24 hrs by SEM analysis; type: functional, organism-based; details: dose 5-20 µg/ml
Candida albicans [23] = test: Antibiofilm activity against Candida albicans ATCC 10231 assessed as inhibition of biofilm formation by crystal violet staining based analysis; type: functional, organism-based
Candida albicans [24] = test: Antibiofilm activity against Candida albicans KCCM 12552 assessed as inhibition of biofilm formation by crystal violet staining based analysis; type: functional, organism-based
Candida albicans [25] = test: Additive antibiofilm activity against fluconazole-resistant Candida albicans DAY185 assessed as inhibition of biofilm formation at 5 ug/ml measured after 24 hrs in presence of AMB by crystal violet staining based analysis relative to control; type: functional, organism-based; details: dose 5.0 µg/ml
Candida albicans [26] = test: Antibiofilm activity against fluconazole-resistant Candida albicans DAY185 assessed as reduction in mean biofilm thickness on bio-compatible PLGA surface coated with compound incubated for 24 hrs by COMSTAT analysis; type: functional, organism-based
Candida albicans [27] = test: Inhibition of yeast to hypha transition in fluconazole-resistant Candida albicans DAY185 assessed as decrease in hyphal growth at 5 to 20 ug/ml measured after 24 hrs by SEM analysis; type: functional, organism-based; details: dose 5-20 µg/ml
Brassica rapa = test: Toxicity in Brassica rapa assessed as seed germination rate at 10 to 100 ug/ml treated for 4 days relative to control; type: organism-based; details: in vivo, 96 h, at 10 to 100 µg/mL, dose 10-100 µg/ml, time 4 day
Candida albicans [28] = test: Upregulation of ZAP1 mRNA level in fluconazole-resistant Candida albicans DAY185 assessed as fold increase at 50 ug/ml incubated for 6 hrs by qRT-PCR analysis relative to control; type: functional; details: dose 50.0 µg/ml
Candida albicans [29] = test: Antibiofilm activity against fluconazole-resistant Candida albicans DAY185 assessed as inhibition of biofilm formation on bio-compatible PLGA surface coated with compound at 5 to 10 ug/ml incubated for 24 hrs by CLSM analysis; type: functional, organism-based; details: dose 5-10 µg/ml
Candida albicans [30] = test: Inhibition of yeast to hypha transition in fluconazole-resistant Candida albicans DAY185 assessed as decrease in filamentous growth at 5 to 20 ug/ml measured after 24 hrs by SEM analysis; type: functional, organism-based; details: dose 5-20 µg/ml
Candida albicans [31] = test: Antibiofilm activity against fluconazole-resistant Candida albicans DAY185 assessed as reduction in overall biofilm mass on bio-compatible PLGA surface coated with compound at 5 to 10 ug/ml incubated for 24 hrs by CLSM analysis; type: functional, organism-based; details: dose 5-10 µg/ml
Candida albicans [32] = test: Downregulation of ALS3 mRNA level in fluconazole-resistant Candida albicans DAY185 assessed as fold decrease at 50 ug/ml incubated for 6 hrs by qRT-PCR analysis relative to control; type: functional; details: dose 50.0 µg/ml
[33] = Toxicity in Caenorhabditis elegans assessed as nematode survival at higher concentrations treated for 10 days; details: 240 h, time 10 day
Candida albicans [34] = test: Antibiofilm activity against fluconazole-resistant Candida albicans DAY185 assessed as inhibition of biofilm formation at 10 to 20 ug/ml measured after 24 hrs by 2D/3D imaging analysis relative to control; type: functional; details: dose 10-20 µg/ml, at 10 to 20 µg/mL
Candida albicans [35] = test: Inhibition of yeast to hypha transition in fluconazole-resistant Candida albicans DAY185 assessed as decrease in hyphal development at >=10 ug/ml measured after 24 hrs by SEM analysis relative to control; type: functional; details: dose >= 10 µg/ml
Candida albicans [36] = test: Inhibition of yeast to hypha transition in fluconazole-resistant Candida albicans DAY185 assessed as decrease in cell aggregation at 5 to 20 ug/ml measured after 24 hrs by SEM analysis; type: functional, organism-based; details: dose 5-20 µg/ml

With `C[C@@H]1[C@H](O)[C@@H](C)/C=C/C=C/C=C/C=C/C=C/C=C/C=C/[C@H](O[C@@H]2O[C@H](C)[C@@H](O)[C@H](N)[C@@H]2O)C[C@@H]2O[C@](O)(C[C@@H](O)C[C@@H](O)[C@H](O)CC[C@@H](O)C[C@@H](O)CC(=O)O[C@H]1C)C[C@H](O)[C@H]2C(=O)O` [AMPHOTERICIN B] the inhibition (Candida albicans [1]) was “Active” and the inhibition at 1 µg/mL (Candida albicans [2]) was 96%.

With `Clc1nc(Cl)c2c(I)c[nH]c2n1` the inhibition (Candida albicans [3]) was “Active”, the fold change (FC) (Candida albicans [4]) was 82 and the inhibition (Candida albicans [5]) was “Active”. The Activity (Candida albicans [6]) was “Active; More Pronounced Effects Were Observed At Higher Concentration”, the inhibition (Candida albicans [7]) was “Active” and the inhibition ([Candida] auris [8]) was “Dose-dependent-effect”. The fold change (FC) (Candida albicans [9]) was 138, the Activity (Candida albicans [10]) was “Active” and the inhibition ([Candida] auris [11]) was “Dose-dependent-effect”. For the same compound, the fold change (FC) (Candida albicans [12]) was 58, the inhibition at 50 µg/mL (Candida albicans [13]) was over 85% and the inhibition (Candida albicans [14]) was “Active”. For the same compound, the fold change (FC) (Candida albicans [15]) was 143, the Activity (Candida albicans [16]) was “Dose-dependent-effect; Nearly Undetectable Levels Were Observed At 5 Ug/Ml” and the inhibition at 7 µg/mL (Candida albicans [17]) was 100%. The fold change (FC) (Candida albicans [18]) was 55, the fold change (FC) (Candida albicans [19]) was 57 and the Activity (Candida albicans [20]) was “No effect”. The fold change (FC) (Candida albicans [21]) was 37, the inhibition (Candida albicans [22]) was “Active” and the inhibition (Candida albicans [23]) was “Dose-dependent-effect”. For the same compound, the inhibition (Candida albicans [24]) was “Dose-dependent-effect”, the inhibition (Candida albicans [25]) was “Active” and the Activity (Candida albicans [26]) was “Dose-dependent-effect; Nearly Undetectable Levels Were Observed At 5 Ug/Ml”. For the same compound, the inhibition (Candida albicans [27]) was “Active”, the Activity (Brassica rapa) was over 90% and the fold change (FC) (Candida albicans [28]) was 10. For the same compound, the inhibition (Candida albicans [29]) was “Active; Significant Effect Even At Lower Concentration”, the inhibition (Candida albicans [30]) was “Active” and the Activity (Candida albicans [31]) was “Active; More Pronounced Effects Were Observed At Higher Concentration”. The fold change (FC) (Candida albicans [32]) was 8, the Activity [33] was “Toxic” and the “inhibition (INH)” value (Candida albicans [34]) was about 100%. The “inhibition (INH)” value (Candida albicans [35]) was 100% and the inhibition (Candida albicans [36]) was “Active”.

Work on `OC(Cn1cncn1)(Cn1cncn1)c1ccc(F)cc1F` [FLUCONAZOLE] yielded an inhibition at 1 µg/mL (Candida albicans [2]) of under 12%.

With `Clc1c[nH]c2ncnc(Cl)c12` the inhibition at 50 µg/mL (Candida albicans [13]) was over 85%.
